The conditions of this series: 101.33 kPa, Liquid, Pycnometric method.

± gives the expanded uncertainty stated by the source.

For the compound `OCCCOCCCO` [4-oxa-1,7-heptanediol], the mass density is given as 1014 ± 1 kg/m3 (303.15 K); 1007 ± 1 kg/m3 (313.15 K); 999 ± 1 kg/m3 (323.15 K); 991 ± 1 kg/m3 (333.15 K); 984 ± 1 kg/m3 (343.15 K).

On to `OCCOCCO` [diethylene glycol], for which the mass density by setting is: (303.15 K) 1109 ± 1 kg/m3; (313.15 K) 1103 ± 1 kg/m3; (323.15 K) 1095 ± 1 kg/m3; (333.15 K) 1088 ± 1 kg/m3; (343.15 K) 1081 ± 1 kg/m3.

The mass density is the mass of a sample divided by its volume.

The values are drawn from the NIST ThermoML archive (doi:10.1016/j.jct.2008.12.003).
